Measured values reported in US4902799A, “Bicyclic alkoxy- and alkylthio-substituted aminoalcohols” (Maggioni-Winthrop S.p.A., priority 1985, dated 1990).
Read-outs that look alike come from different tables or passages of the source.

What was measured:
Normolipemic rats = experiment: Hypolipemic activity in normolipemic rats; assay type: in vivo, rat (Sprague Dawley Nos male rats); conditions: for hypolipemic activity (in words): oral
toxic adrenaline doses = experiment: animal or person; assay type: in vivo, mouse (male mice CrI:CD 1(CR) BR); conditions: Mus musculus, po, 24 h, read-out: PD50 (50% protective dose)
platelet aggregation = experiment: Collagen-induced platelet aggregation ex vivo; assay type: in vivo, rat
male mice = experiment: Anti-hypoxic activity (gasping time after decapitation); assay type: in vivo; conditions: Mus musculus, po, 100 mg/kg/p.o., read-out: Gasping time, % diff. from control
[1] = tested on: SH rats (spontaneously hypertensive rats); experiment: Anti-hypertensive activity in spontaneously hypertensive rats, tail artery plethysmography; assay type: in vivo, rat; conditions: SHR
Experimental: The anti-hypertensive activity was tested on groups of 5 SH rats (spontaneously hypertensive rats) weighing 200±10 g, fasting for 18 hrs and treated orally with the invention compounds suspended in 2.5% gum arabic.
Changes in blood pressure (mm Hg) before (T=0) and after treatment (2, 4 and 6 hrs) were measured according to the method of tail artery plethysmography reported in "Spontaneously hypertensive rats (SHR): Guidlines for breeding, care and use", SHR Conference, 1976, page 11.
The arterial pressure before the treatment was 210±10 mmHg.

[2] = target: T1, alpha2-adrenergic receptors (Rattus norvegicus, UniProt P22909); conditions: (a) Qian et al. 1983 for Tibalosine; (b) Van Zwieten et al. 1985 for Urapidil; cited from earlier work
T1 construct: from tissue; host or cells: rat brain membranes
T1 sequence (P22909 1-465): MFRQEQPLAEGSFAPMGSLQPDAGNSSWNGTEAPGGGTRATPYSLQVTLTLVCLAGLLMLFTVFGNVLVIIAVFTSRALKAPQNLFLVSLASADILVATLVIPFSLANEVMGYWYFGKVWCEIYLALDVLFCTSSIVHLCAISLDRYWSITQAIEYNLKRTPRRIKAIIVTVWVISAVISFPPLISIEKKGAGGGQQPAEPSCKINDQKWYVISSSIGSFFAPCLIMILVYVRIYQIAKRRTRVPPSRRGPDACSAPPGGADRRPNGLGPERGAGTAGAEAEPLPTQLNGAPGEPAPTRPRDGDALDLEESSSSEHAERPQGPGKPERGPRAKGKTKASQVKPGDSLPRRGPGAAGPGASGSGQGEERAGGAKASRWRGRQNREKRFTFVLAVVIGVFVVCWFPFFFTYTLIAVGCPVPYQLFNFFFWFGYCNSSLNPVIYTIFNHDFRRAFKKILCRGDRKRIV

[3] = target: alpha1-adrenergic receptors; conditions: (a) Qian et al. 1983 for Tibalosine; (b) Van Zwieten et al. 1985 for Urapidil; cited from earlier work
[4] = 0.15 mM/kg oral, blood 1 hr after treatment, collagen 2-4 mcg/ml

COc1ccc2cc(C(O)C(C)N3CCC(NC(=O)c4ccccc4)CC3)ccc2c1 (stereo not shown) [MG 38105, 2-(4-Benzamido-1-piperidinyl)-1-(6-methoxy-2-naphthyl)-propanol]
CHOL, % different from control (Normolipemic rats; 0.023 mM/kg/p.o. × 4 days): -35.7%
CHOL-HDL, % different from control (Normolipemic rats; 0.023 mM/kg/p.o. × 4 days): -13.3%
Liver Weight, % different from control (Normolipemic rats; 0.023 mM/kg/p.o. × 4 days): +5.5%
TG, % different from control (Normolipemic rats; 0.023 mM/kg/p.o. × 4 days): -36.2%
CHOL, % different from control (Normolipemic rats; 0.046 mM/kg/p.o. × 4 days): -45.8%
CHOL-HDL, % different from control (Normolipemic rats; 0.046 mM/kg/p.o. × 4 days): +1.3%
Liver Weight, % different from control (Normolipemic rats; 0.046 mM/kg/p.o. × 4 days): +8.0%
TG, % different from control (Normolipemic rats; 0.046 mM/kg/p.o. × 4 days): -63.8%
CHOL, % different from control (Normolipemic rats; 0.185 mM/kg/p.o. × 4 days): -96.6%
CHOL-HDL, % different from control (Normolipemic rats; 0.185 mM/kg/p.o. × 4 days): +3.9%
Liver Weight, % different from control (Normolipemic rats; 0.185 mM/kg/p.o. × 4 days): +4.8%
TG, % different from control (Normolipemic rats; 0.185 mM/kg/p.o. × 4 days): -70.6%
hypolipemic activity (in words) (Normolipemic rats): good activity at very low doses

COc1ccc2cc(C(O)C(C)N3CCC(NC(=O)c4ccccc4)CC3)ccc2c1 (stereo not shown) [MG 38127, 2-(4-Benzamido-1-piperidinyl)-1-(6-methoxy-2-naphthyl)-propanol]
CHOL, % different from control (Normolipemic rats; 0.023 mM/kg/p.o. × 4 days): -30.2%
CHOL-HDL, % different from control (Normolipemic rats; 0.023 mM/kg/p.o. × 4 days): +7.6%
Liver Weight, % different from control (Normolipemic rats; 0.023 mM/kg/p.o. × 4 days): -1.6%
TG, % different from control (Normolipemic rats; 0.023 mM/kg/p.o. × 4 days): -41.4%
CHOL, % different from control (Normolipemic rats; 0.046 mM/kg/p.o. × 4 days): -51.2%
CHOL-HDL, % different from control (Normolipemic rats; 0.046 mM/kg/p.o. × 4 days): -1.8%
Liver Weight, % different from control (Normolipemic rats; 0.046 mM/kg/p.o. × 4 days): +8.6%
TG, % different from control (Normolipemic rats; 0.046 mM/kg/p.o. × 4 days): -66.3%
CHOL, % different from control (Normolipemic rats; 0.185 mM/kg/p.o. × 4 days): -59.1%
CHOL-HDL, % different from control (Normolipemic rats; 0.185 mM/kg/p.o. × 4 days): -19.8%
Liver Weight, % different from control (Normolipemic rats; 0.185 mM/kg/p.o. × 4 days): +3.3%
TG, % different from control (Normolipemic rats; 0.185 mM/kg/p.o. × 4 days): -81.7%
hypolipemic activity (in words) (Normolipemic rats): good activity at very low doses

Cc1ccc(N(CC2=NCCN2)c2cccc(O)c2)cc1 [Phentolamine]
ED50 (toxic adrenaline doses): 8 mg/kg

COc1cc2nc(N3CCN(C(=O)c4ccco4)CC3)nc(N)c2cc1OC [Prazosin]
ED50 (toxic adrenaline doses): 0.7 mg/kg

CC(C)(Sc1cc(C(C)(C)C)c(O)c(C(C)(C)C)c1)Sc1cc(C(C)(C)C)c(O)c(C(C)(C)C)c1 [Probucol, reference compound]
CHOL, % different from control (Normolipemic rats; 0.205 mM/kg/p.o. × 8 days): -25.0%
CHOL-HDL, % different from control (Normolipemic rats; 0.205 mM/kg/p.o. × 8 days): -26%
Liver Weight, % different from control (Normolipemic rats; 0.205 mM/kg/p.o. × 8 days): +4.0%
TG, % different from control (Normolipemic rats; 0.205 mM/kg/p.o. × 8 days): -28.0%
CHOL, % different from control (Normolipemic rats; 0.82 mM/kg/p.o. × 4 days): ~ 0%
CHOL-HDL, % different from control (Normolipemic rats; 0.82 mM/kg/p.o. × 4 days): +18.5%
Liver Weight, % different from control (Normolipemic rats; 0.82 mM/kg/p.o. × 4 days): ~ 0%
TG, % different from control (Normolipemic rats; 0.82 mM/kg/p.o. × 4 days): ~ 0%
hypolipemic activity (in words) (Normolipemic rats): moderate and is noted only after prolonged treatment (8 days)

O=C1C(CC[S+]([O-])c2ccccc2)C(=O)N(c2ccccc2)N1c1ccccc1 (stereo not shown) [Sulfinpyrazone, reference compound]
% Inhibition, Aggregation rate (platelet aggregation; rat, in vivo, po): 89.0%
% Inhibition, Maximum aggregation (platelet aggregation; rat, in vivo, po): 92.5%

CCCCCCCCNC(C)C(O)c1ccc(SC(C)C)cc1 (stereo not shown) [Suloctidil, reference compound]
% Inhibition, Aggregation rate (platelet aggregation; [4]): 57.5%
% Inhibition, Maximum aggregation (platelet aggregation; [4]): 69.0%
change in vivo at 100 mg/kg (male mice; pretreatment 45 min): 27.5%
change in vivo at 100 mg/kg (male mice; pretreatment 90 min): 11.7%

CC(NCCCCc1ccccc1)C(O)c1ccc2c(c1)CCS2 (stereo not shown) [Tibalosine]
Max. changes in systolic pressure ([1]; 1 mg/kg p.o.): ~ 0 mmHg
Max. changes in systolic pressure ([1]; 5 mg/kg p.o.): -13.2 mmHg
Max. changes in systolic pressure ([1]; 15 mg/kg p.o.): -67 mmHg
IC50 [2]: 1000 µM
IC50 [3]: 0.4 µM

Clc1ccccc1CN1CCc2sccc2C1 [Ticlopidine, reference compound]
% Inhibition, Aggregation rate (platelet aggregation; [4]): 56.0%
% Inhibition, Maximum aggregation (platelet aggregation; [4]): 70.0%

COc1ccccc1N1CCN(CCCNc2cc(=O)n(C)c(=O)n2C)CC1 [Urapidil]
Max. changes in systolic pressure ([1]; 1 mg/kg p.o.): -16 mmHg
Max. changes in systolic pressure ([1]; 5 mg/kg p.o.): -47 mmHg
Max. changes in systolic pressure ([1]; 15 mg/kg p.o.): -72.4 mmHg
IC50 [2]: 14 µM
IC50 [3]: 0.8 µM
